Consider 18 compounds from ChEMBL document CHEMBL1145732, “Non-imidazole heterocyclic histamine H3 receptor antagonists” (Bioorg Med Chem Lett, 2003).

A short description of series [1]: Half-life was determined. The format is ADME. The conditions noted are these: human.
The target in a further series is Histamine H3 receptor (Homo sapiens, UniProt Q9Y5N1). Description: Binding affinity towards human Histamine H3 receptor using [3H]N-methyl-histamine as radioligand.
Another series relates to Caco-2. As to the kind of experiment: Permeability was evaluated using Caco-2 cells. The class given is functional, cell-based. The settings on record: Homo sapiens. (Caco-2 monolayers are a common model of the intestinal barrier.)
For another series, the species on record is Rattus norvegicus. Description: Compound was evaluated in a functional assay for determining rat pA2. The conditions noted are these: read-out: pA2 (converted).
Another series deals with SK-N-MC. As to the kind of experiment: Compound was evaluated in a functional assay against […] cells stably transfected with the human H3 receptor. The format is cell-based. The conditions noted are these: read-out: pA2 (converted).

A word on the half-life: it is the time in which the quantity being followed falls by half. High values mean slow loss, low ones fast loss. As usually defined, the Ki is a measure of affinity in units of concentration, obtained from inhibition or displacement. Read a high Ki as weaker binding. Usually Papp stands for the rate of passage across a membrane or cell layer, normalised by area and donor concentration. A lower Papp goes with slow passage.

Histamine H3 receptor, sequence (Q9Y5N1 whole entry): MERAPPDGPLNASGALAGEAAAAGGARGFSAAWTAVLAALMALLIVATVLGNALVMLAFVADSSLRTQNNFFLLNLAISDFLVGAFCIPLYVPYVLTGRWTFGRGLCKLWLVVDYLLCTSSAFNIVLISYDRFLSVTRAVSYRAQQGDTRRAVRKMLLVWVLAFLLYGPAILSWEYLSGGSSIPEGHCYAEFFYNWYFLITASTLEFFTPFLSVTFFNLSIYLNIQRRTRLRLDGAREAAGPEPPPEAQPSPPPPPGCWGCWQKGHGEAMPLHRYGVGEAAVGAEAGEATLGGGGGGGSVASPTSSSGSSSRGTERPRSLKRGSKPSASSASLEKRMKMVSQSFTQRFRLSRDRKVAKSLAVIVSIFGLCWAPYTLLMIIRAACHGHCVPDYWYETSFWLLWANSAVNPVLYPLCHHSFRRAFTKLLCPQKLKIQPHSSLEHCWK

`Cc1c(-c2ccc(OCCCN3CCCCC3)cc2)cc2ccccn12`: the half-life in series [1] turned out to be 54 min. Further, the affinity at Histamine H3 receptor corresponds to a Ki of 2 nM.
On to `Cc1cc(OCCCN2CCCCC2)ccc1-c1cc2ccccn2c1`, for which the Ki at Histamine H3 receptor stood at 152 nM.
`c1ccn2cc(-c3ccc(OCCCN4CCCCC4)cc3)cc2c1`: in series [1], the half-life amounted to 10 min. Further, the Papp in the series on Caco-2 is 0.14 ×10⁻⁶ cm/s. Besides, the figures for the Kb in the series listed under Rattus norvegicus and in the series on SK-N-MC were 19.5 nM and 3.16 nM, respectively. On Histamine H3 receptor, this compound had a Ki of 13 nM.
As to `Cc1c(-c2ccc(OCCCN3CCCCC3)cc2)cn2ccccc12`, the Ki at Histamine H3 receptor came out at 16 nM.
Still for that read-out and setting: with `c1ccc2[nH]c(-c3ccc(OCCCN4CCCCC4)cc3)cc2c1` the figure was 47 nM; with `Cc1cccn2cc(-c3ccc(OCCCN4CCCCC4)cc3)cc12`, 40 nM.
The same measure, in the same setting: to `Cc1cccc2cc(-c3ccc(OCCCN4CCCCC4)cc3)cn12` belongs 46 nM; to `CCc1c(-c2ccc(OCCCN3CCCCC3)cc2)cn2ccccc12`, 19 nM.
Still for that read-out and setting: with `c1ccc(CCc2c(-c3ccc(OCCCN4CCCCC4)cc3)cn3ccccc23)cc1` the figure was 37 nM; with `CCc1c(-c2ccc(OCCCN3CCCCC3)cc2)cc2ccccn12`, 5 nM; with `c1ccc(-c2cc3ccccn3c2)c(OCCCN2CCCCC2)c1`, 236 nM.
For the compound `Cc1cc(OCCCN2CCCCC2)ccc1-c1cn2ccccc2c1C`, on Histamine H3 receptor, the Ki came to 11 nM.
Same read-out and setting: to `Cc1ccc2cc(-c3ccc(OCCCN4CCCCC4)cc3)cn2c1` belongs 28 nM; to `c1ccc(-c2c(-c3ccc(OCCCN4CCCCC4)cc3)cn3ccccc23)cc1`, 40 nM; to `CS(=O)(=O)n1c(-c2ccc(OCCCN3CCCCC3)cc2)cc2ccccc21`, 16 nM.
`Cc1ccn2cc(-c3ccc(OCCCN4CCCCC4)cc3)cc2c1` returned a Ki at Histamine H3 receptor of 40 nM.
Consider `c1cc(OCCCN2CCCCC2)cc(-c2cc3ccccn3c2)c1`, for which, at Histamine H3 receptor, the affinity, expressed as Ki, was 308 nM.
Same read-out and setting: to `c1ccn2nc(-c3ccc(OCCCN4CCCCC4)cc3)cc2c1` belongs 11 nM.
